System: Human dermal fibroblasts
Test: Stimulation of collagen synthesis, procollagen type I C-peptide (PIP) EIA on conditioned medium
Format: cell-based
Conditions: compound at 0.0005% in DMSO, triplicate, 48-hour incubation; increase in collagen over the DMSO control
Description: Human dermal fibroblasts (Cascade Biologics, Portland, Oreg.) were plated at 10,000 cells/well in 96-well culture plates in supplemented medium (DMEM, 10% Fetal Bovine Serum, 1% Penicillin/Streptomycin and 1% L-Glutamine) overnight in humidified atmosphere of 10% CO2 at 37° C. […] DMSO solution was used a control. Following 48-hour incubation, the plates were removed from the incubator and the medium from each well was collected for the procollagen assay. Collagen production was measured using procollagen type I C-peptide (PIP) EIA kit (Takara Bio, Inc., Japan). […] The ELISA plate was incubated at 37° C. for 3 hours before the wells were washed four times with 400 μl of 1×PBS. At the end of wash, 100 μl of substrate solution (supplied with kit) was added to the wells and incubated at room temperature for 15 minutes. The reaction was stopped by adding 100 μl of 1N sulfuric acid to the wells. The absorbance was measured on a spectrophotometer at 450 nm wavelength. The amount of procollagen peptide in the conditioned medium was calculated from the standard curve. The stimulation of collagen production was shown as an increase in collagen over the control.

Row | SMILES | % Collagen Stimulation [%]
1 | CCOCCCNC(=O)c1coc(CN(CCCOCC)C(=O)c2cccc(Br)c2)n1 [Compound 1] | 68.77
2 | CCOCCCNC(=O)c1coc(CN(CCCOCC)C(=O)c2ccc(Cl)cc2)n1 [Compound 2] | 67.86
